Measured values taken from paper doi:10.1101/2025.01.28.635346v1 (bioRxiv, 2025).
Bridge positions count the residues as written; N and C are the ends. Peptide text beside a SMILES is read from it.

Columns and labels:
integrin αvβ6 [1] = target: T1, integrin αvβ6 (Homo sapiens, UniProt P06756+P18564); assay: ELISA competition assay, integrin αvβ6 binding to LAP
integrin αvβ8 [2] = target: T2, integrin αvβ8 (Homo sapiens, UniProt P06756+P26012); assay: ELISA competition assay, integrin αvβ8 binding to LAP
integrin αvβ3 [3] = target: T3, integrin αvβ3 (Homo sapiens, UniProt P05106+P06756); assay: ELISA competition assay, integrin αvβ3; assay type: binding
integrin αvβ3 [4] = target: T3, integrin αvβ3; assay: AlphaLISA competition assay vs LAP, biotinylated αvβ3; assay type: binding
integrin αvβ6 [5] = target: T1, integrin αvβ6; assay: AlphaLISA competition assay vs LAP, biotinylated αvβ6; assay type: binding
integrin αvβ8 [6] = target: T2, integrin αvβ8; assay: AlphaLISA competition assay vs LAP, biotinylated αvβ8; assay type: binding
[7] = αvβ6 IC50, ELISA competition vs LAP, mean, n ≥ 3

IC50 (integrin αvβ6 [1])	IC50 (integrin αvβ3 [4])	SMILES	IC50 (integrin αvβ6 [1]; [7])	IC50 (integrin αvβ8 [2])	IC50 (integrin αvβ3 [3])	IC50 (integrin αvβ6 [5])	IC50 (integrin αvβ8 [6])
–	–	CC[C@H](C)[C@@H]1NC(=O)[C@H](CO)NC(=O)CC[C@@H](C(=O)N[C@@H](CO)C(=O)N[C@@H](CCSC)C(=O)N[C@@H](CO)C(=O)N[C@@H](CO)C(=O)N[C@@H](CCC(N)=O)C(=O)N[C@H](C(=O)N[C@@H](Cc2ccc(O)cc2)C(=O)N[C@@H](Cc2c[nH]c3ccccc23)C(=O)N2CCC[C@H]2C(=O)O)[C@@H](C)O)NC(=O)[C@H](CCCNC(=N)N)NC(=O)[C@H](CC(C)C)NC(=O)CNC(=O)[C@H](CO)NC(=O)[C@H](CC(=O)O)NC(=O)CNC1=O [lassotide 17, caulonodin V, reference compound] (SIGDSGLRESMSSQTYWP-OH; lactam N-9; C-terminus assumed)	> 10000 nM	> 10000 nM	> 10000 nM	–	–
–	–	CC[C@H](C)[C@H](NC(=O)[C@@H]1CCCN1C(=O)[C@H](CC(C)C)NC(=O)[C@H](CC(=O)O)NC(=O)CNC(=O)[C@H](CCCNC(=N)N)NC(=O)[C@@H](NC(=O)[C@H](Cc1ccc(O)cc1)NC(=O)[C@@H]1CCC(=O)NCC(=O)NCC(=O)N[C@@H](C)C(=O)NCC(=O)N[C@@H](Cc2c[nH]cn2)C(=O)N[C@@H](C(C)C)C(=O)N2CCC[C@H]2C(=O)N1)C(C)C)C(=O)N[C@@H](CO)C(=O)N[C@@H](Cc1ccccc1)C(=O)N[C@@H](Cc1ccc(O)cc1)C(=O)NCC(=O)O [lassotide 12] (GGAGHVPEYVRGDLPISFYG-OH; lactam N-8; C-terminus assumed)	177 nM	475 nM	1 nM	–	–
–	–	CC[C@H](C)[C@@H]1NC(=O)[C@H]([C@@H](C)CC)NC(=O)[C@@H]2CCCN2C(=O)CNC(=O)[C@H](CC(=O)O)NC(=O)[C@H](CO)NC(=O)CNC(=O)CC[C@@H](C(=O)N[C@@H](Cc2ccccc2)C(=O)N[C@@H](CCCNC(=N)N)C(=O)NCC(=O)N[C@@H](CC(=O)O)C(=O)N[C@@H](CC(C)C)C(=O)NCC(=O)N[C@H](C(=O)N[C@@H](CCSC)C(=O)N[C@@H](Cc2c[nH]cn2)C(=O)N[C@@H](Cc2ccc(O)cc2)C(=O)NCC(=O)O)C(C)C)NC1=O [lassotide 16] (GSDGPIIEFRGDLGVMHYG-OH; lactam N-8; C-terminus assumed)	30 nM	214 nM	1060 nM	–	–
> 10000 nM	–	CC[C@H](C)[C@@H]1NC(=O)[C@H]([C@@H](C)CC)NC(=O)[C@@H]2CCCN2C(=O)CNC(=O)[C@H](CC(=O)O)NC(=O)[C@H](CO)NC(=O)CNC(=O)CC[C@@H](C(=O)N[C@@H](Cc2ccccc2)C(=O)N[C@@H](Cc2ccccc2)C(=O)N[C@@H](CC(N)=O)C(=O)N2CCC[C@H]2C(=O)N[C@@H](CC(N)=O)C(=O)NCC(=O)N[C@H](C(=O)N[C@@H](CCSC)C(=O)N[C@@H](Cc2c[nH]cn2)C(=O)N[C@@H](Cc2ccc(O)cc2)C(=O)NCC(=O)O)C(C)C)NC1=O [lassotide 15, klebsidin, reference compound] (GSDGPIIEFFNPNGVMHYG-OH; lactam N-8; C-terminus assumed)	–	> 10000 nM	> 10000 nM	–	–
–	1 nM	CC[C@H](C)[C@H](NC(=O)[C@@H]1CCCN1C(=O)[C@H](CC(C)C)NC(=O)[C@H](CC(=O)O)NC(=O)CNC(=O)[C@H](CCCNC(=N)N)NC(=O)[C@@H](NC(=O)[C@H](Cc1ccccc1)NC(=O)[C@H](Cc1ccc(O)cc1)NC(=O)[C@@H]1CCC(=O)NCC(=O)NCC(=O)N[C@@H](C)C(=O)NCC(=O)N[C@@H](Cc2c[nH]cn2)C(=O)N[C@@H](C(C)C)C(=O)N2CCC[C@H]2C(=O)N1)C(C)C)C(=O)N[C@@H](CO)C(=O)N[C@@H](Cc1ccccc1)C(=O)N[C@@H](Cc1ccc(O)cc1)C(=O)NCC(=O)O [lassotide 2] (GGAGHVPEYFVRGDLPISFYG-OH; lactam N-8; C-terminus assumed)	–	–	–	263 nM	–
–	–	CC[C@H](C)[C@H](NC(=O)[C@H](CC(C)C)NC(=O)[C@H](CC(=O)O)NC(=O)CNC(=O)[C@H](CCCNC(=N)N)NC(=O)[C@H](CCCNC(=N)N)NC(=O)[C@H](Cc1ccccc1)NC(=O)[C@H](Cc1ccc(O)cc1)NC(=O)[C@@H]1CCC(=O)NCC(=O)NCC(=O)N[C@@H](C)C(=O)NCC(=O)N[C@@H](Cc2c[nH]cn2)C(=O)N[C@@H](C(C)C)C(=O)N2CCC[C@H]2C(=O)N1)C(=O)N[C@@H](CO)C(=O)N[C@@H](Cc1ccccc1)C(=O)N[C@@H](Cc1ccc(O)cc1)C(=O)NCC(=O)O [lassotide 20] (GGAGHVPEYFRRGDLISFYG-OH; lactam N-8; C-terminus assumed)	–	–	–	17 nM	38 nM
–	–	CC(C)C[C@H](NC(=O)[C@H](CC(=O)O)NC(=O)CNC(=O)[C@H](CCCNC(=N)N)NC(=O)[C@@H](NC(=O)[C@H](Cc1ccccc1)NC(=O)[C@H](Cc1ccc(O)cc1)NC(=O)[C@@H]1CCC(=O)NCC(=O)NCC(=O)N[C@@H](C)C(=O)NCC(=O)N[C@@H](Cc2c[nH]cn2)C(=O)N[C@@H](C(C)C)C(=O)N2CCC[C@H]2C(=O)N1)C(C)C)C(=O)N[C@@H](Cc1ccc(O)cc1)C(=O)N[C@@H](CO)C(=O)N[C@@H](Cc1ccccc1)C(=O)N[C@@H](Cc1ccc(O)cc1)C(=O)NCC(=O)O [lassotide 25] (GGAGHVPEYFVRGDLYSFYG-OH; lactam N-8; C-terminus assumed)	–	–	–	295 nM	205 nM
–	–	CC[C@H](C)[C@H](NC(=O)[C@@H]1CCCN1C(=O)[C@H](CC(C)C)NC(=O)[C@H](CC(=O)O)NC(=O)CNC(=O)[C@H](CCCNC(=N)N)NC(=O)[C@H](Cc1ccccc1)NC(=O)[C@H](Cc1ccc(O)cc1)NC(=O)[C@@H]1CCC(=O)NCC(=O)NCC(=O)N[C@@H](C)C(=O)NCC(=O)N[C@@H](Cc2c[nH]cn2)C(=O)N[C@@H](C(C)C)C(=O)N2CCC[C@H]2C(=O)N1)C(=O)N[C@@H](CO)C(=O)N[C@@H](Cc1ccccc1)C(=O)N[C@@H](Cc1ccc(O)cc1)C(=O)NCC(=O)O [lassotide 13] (GGAGHVPEYFRGDLPISFYG-OH; lactam N-8; C-terminus assumed)	624 nM	221 nM	20 nM	–	–
–	–	CC[C@H](C)[C@H](NC(=O)[C@H](CC(C)C)NC(=O)[C@H](CC(=O)O)NC(=O)CNC(=O)[C@H](CCCNC(=N)N)NC(=O)[C@H](Cc1ccc(O)cc1)NC(=O)[C@H](Cc1ccccc1)NC(=O)[C@H](Cc1ccc(O)cc1)NC(=O)[C@@H]1CCC(=O)NCC(=O)NCC(=O)N[C@@H](C)C(=O)NCC(=O)N[C@@H](Cc2c[nH]cn2)C(=O)N[C@@H](C(C)C)C(=O)N2CCC[C@H]2C(=O)N1)C(=O)N[C@@H](CO)C(=O)N[C@@H](Cc1ccccc1)C(=O)N[C@@H](Cc1ccc(O)cc1)C(=O)NCC(=O)O [lassotide 22] (GGAGHVPEYFYRGDLISFYG-OH; lactam N-8; C-terminus assumed)	–	–	–	198 nM	78 nM
–	–	CC(C)C[C@H](NC(=O)[C@H](CC(=O)O)NC(=O)CNC(=O)[C@H](CCCNC(=N)N)NC(=O)[C@@H](NC(=O)[C@H](Cc1ccccc1)NC(=O)[C@H](Cc1ccc(O)cc1)NC(=O)[C@@H]1CCC(=O)NCC(=O)NCC(=O)N[C@@H](C)C(=O)NCC(=O)N[C@@H](Cc2c[nH]cn2)C(=O)N[C@@H](C(C)C)C(=O)N2CCC[C@H]2C(=O)N1)C(C)C)C(=O)N[C@@H](CCC(=O)O)C(=O)N[C@@H](CO)C(=O)N[C@@H](Cc1ccccc1)C(=O)N[C@@H](Cc1ccc(O)cc1)C(=O)NCC(=O)O [lassotide 27] (GGAGHVPEYFVRGDLESFYG-OH; lactam N-8; C-terminus assumed)	–	–	–	141 nM	264 nM
